Measurements taken from patent US20090270453A1, “ANTI-MANIC EFFECTIVE DOSES OF SERTINDOLE” (priority 2007, published 2009).
“Also recorded” adds a separate entry of the source.

What was measured:
[1] = test system: AMPH+CDP induced locomotor activity; settings: rats; Lamberty, et al. 2001; cited from earlier work
[2] = test system: sensitized response to an acute AMPH challenge; settings: mice; Husum 2005, poster no. 32.06; cited from earlier work
[3] = test system: sensitized response to an acute AMPH challenge; assay: Sensitized AMPH response model (induced hyperactivity); format: in vivo, Male Crl:NMRI mice; settings: for effect on AMPH induced hyperactivity in sensitized mice: s.c. pre-treatment, about 30 min recording
Procedure: (§1) Subjects: Male Crl:NMRI mice (about 20 g) were at the animal facility about 5 days prior to the start of the experiment and were housed in climate-controlled animal facilities under normal light-dark cycle (lights on about 06:00 to about 18:00). The mice were kept 6 per cage and allowed enrichment (two plastic houses+nesting material).
(§2) Drugs: All compounds were administered subcutaneously and are listed as free base doses. The mice were pre-treated with either d-amphetamine (about 1.8 mg/kg) or vehicle (about 0.9% NaCl, about 10 ml/kg) once daily for five consecutive days.
Test procedure: About 17-19 days after the pre-treatment, the animals were treated with test substance or vehicle and individually placed to habituate for about 30 min in motility boxes (about 20×about 32 cm) equipped with about 5×about 8 light sources and infrared cells spaced by about 4 cm. The light beams crossed the cage 1.8 cm above the bottom of the cage. Recording of a motility count requires interruption of adjacent light beams, thus avoiding counts induced by stationary movements of the mice. After habituation, an acute dose of d-amphetamine (about 0.95 mg/kg) or vehicle was administered and data acquisition was begun and lasted for about 30 min.
(§3) Data Analysis: Data were averaged within the groups (n=12) and are presented as mean±SD. The acute effect of test substance against the sensitized response to amphetamine was statistically evaluated by one-way ANOVA of variance: Dunn's method was applied for post hoc testing against the sensitized group receiving (NaCl, about 1 ml/kg) followed by CDP (about 8.9 mg/kg in 10% hydroxypropyl-beta-cyclodextrin) was administrated about 35 minutes before the test. A parallel set of control animal received two vehicle injections.

[4] = test system: baseline locomotor activity of control rats; assay: Baseline locomotor activity of control rats in locomotor box; format: in vivo, Male Wistar rats; settings: for Average Crossings in % (SEM): % of control group set to 100%; for effect on baseline (basal) locomotor activity: locomotor box about 2 hours, administered doses
Procedure: (§4) Subjects: Male Wistar rats weighing about 150-200 g were housed 2-4 rats per cage in makrolon cages (about 20×about 35 cm) equipped with sawdust and with one plastic house for enrichment. The animals were kept at room temperature (about 20° C.±2) in about 12-hour light/dark cycle (lights on at about 06:00) with free access to food and tap water. The rats were allowed to acclimatize to the animal facility premises for about 5-9 days prior to the initiation of experiments. The animals were taken to the experimental room on the day before the experiment and weighed.
(§5) Test procedure: For the assessment of locomotor activity, makrolon cages (about 20×about 35 cm) with a thin layer of standard bedding material were placed in a U-frame equipped longitudinally with 4 infrared light sources and photocells placed about 4 cm above the bottom of the cage. All experiments were conducted under normal light conditions. The animals were placed individually in test boxes and the assessment of locomotor activity was immediately begun. During the test session, locomotor activity was recorded as crossings of infrared light beams and total locomotor activity was the accumulated number of crossings over the approximately 120-min period. The recording of a motility count required the crossing of two adjacent light beams, thus avoiding counts induced by stationary movements of the rat.
Statistical analysis of differences in total locomotor activity (normalized data) among the various treatment groups was carried out using a two-way ANOVA with factors treatment (AMPH+CDP vs. vehicle) and drug (drug vs. vehicle). In case of a significant interaction, a post hoc Student-Newman-Keuls Method was used for multiple comparisons. A probability level of 0.05 was considered significant.

[5] = test system: AMPH+CDP induced locomotor activity; assay: Sensitized AMPH+CDP response model (induced locomotor hyperactivity); format: in vivo, Male Wistar rats; settings: for effect on AMPH+CDP induced locomotor activity (hyperactivity): rats, s.c. pre-treatment, about 120 min test-period
Procedure: as §4
Drugs: All drugs are listed as mg free base/kg with the exception of lithium (mEq/kg). Drug solutions were titrated into a pH range of about 4.5-7.0 for subcutaneous (s.c.) administration. To induce hyperactivity, amphetamine sulphate (about 0.9 mg/kg in about 0.9% NaCl, about 1 ml/kg) followed by CDP (7-Chloro-2-(methylmino)-5-phenyl-3h-1,4-benzodiazepine-4-oxide, about 8.9 mg/kg in about 10% hydroxypropyl-beta-cyclodextrin) was administrated about 35 minutes before the test. A parallel set of control animal received two vehicle injections. Lithium chloride (about 0.2-0.9 mEq/kg) was dissolved in distilled water isosmotically supplemented with NaCl, and administrated about 210 minutes before testing. Lamotrigine (6-(2,3-Dichloro-phenyl)-[1,2,4]-triazine-3,5-diamine, about 2.5-80 mg/kg) was dissolved in about 10% hydroxypropyl-beta-cyclodextrin and administrated about 30 minutes before the test.
as §5
Data Analysis: The average total basal locomotor activity of the control groups in the different experiments varied between 322-516 light beam crossings (see Table 1). Due to this variation, the results in each experiment were normalized to percentage activity relative to the average total locomotor activity of control group that was set as 100%. Statistical analysis of differences in total locomotor activity (normalized data) among the various treatment groups was carried out using a two-way ANOVA with factors treatment (AMPH+CDP vs. vehicle) and drug (drug vs. vehicle). In case of a significant interaction, a post hoc Student-Newman-Keuls Method was used for multiple comparisons. A probability level of 0.05 was considered significant.
Crossings of light-beams as a measure of locomotor activity over about a 120 min test-period is shown as percentage of the control group-level that is set to 100%. The bars show the mean±SEM for each group and the dots show the activity of individual rats (n=10-12). Administration of amphetamine (about 0.9 mg/kg, s.c.) and chlordiazepoxide (about 8.9 mg/kg, s.c.) produced a significant increase in locomotor activity (***p<0.001 vs. control group (O) in all experiments).

serotonin 5-HT2 = settings: Sanchez et al. 1991; Arnt and Skarsfeldt 1998; cited from earlier work
dopamine D2 = dopamine D2 (Homo sapiens, UniProt P14416); settings: Sanchez et al. 1991; Arnt and Skarsfeldt 1998; cited from earlier work
Chain of dopamine D2 (P14416 whole entry): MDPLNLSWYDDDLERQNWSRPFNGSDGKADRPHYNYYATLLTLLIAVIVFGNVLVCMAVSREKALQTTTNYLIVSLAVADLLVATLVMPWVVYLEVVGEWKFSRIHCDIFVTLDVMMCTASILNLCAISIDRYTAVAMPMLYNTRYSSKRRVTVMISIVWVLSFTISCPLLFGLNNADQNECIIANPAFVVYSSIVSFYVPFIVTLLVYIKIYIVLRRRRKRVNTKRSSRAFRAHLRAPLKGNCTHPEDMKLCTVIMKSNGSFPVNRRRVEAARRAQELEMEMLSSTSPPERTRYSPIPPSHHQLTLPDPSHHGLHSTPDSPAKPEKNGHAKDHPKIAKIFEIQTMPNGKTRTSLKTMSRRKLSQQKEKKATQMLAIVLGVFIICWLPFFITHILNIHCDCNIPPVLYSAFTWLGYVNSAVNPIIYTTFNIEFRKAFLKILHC

saline activity = assay: Activity of saline (non-AMPH) mice in the sensitized AMPH response model; format: in vivo, Male Crl:NMRI mice; settings: sertindole about 0.63 mg/kg
Procedure: as §1, §2
Test procedure: About 17-19 days after the pre-treatment, the animals were treated with test substance or vehicle and individually placed to habituate for about 30 min in motility boxes (about 20×about 32 cm) equipped with about 5×about 8 light sources and infrared cells spaced by about 4 cm. The light beams crossed the cage 1.8 cm above the bottom of the cage. […]
as §3, with “A parallel set of control animal received two vehicle injections.” left out

schizophrenic patients = settings: human clinical studies; Daniel D, et al. 1995; cited from earlier work
α1-adrenergic receptors = settings: Sanchez et al. 1991; Arnt and Skarsfeldt 1998; cited from earlier work

Compound: NC(=O)N1c2ccccc2C=Cc2ccccc21 [carbamazepine]
- effectiveness in the AMPH+CDP induced hyperactivity model [1]: effective
- effect on the sensitized response to an acute AMPH challenge [2]: dose-dependently abolish; also recorded: reversed the effect of acute AMPH administration

Compound: CN(C)CCCC1(c2ccc(F)cc2)OCc2cc(C#N)ccc21 (centres unmarked) [citalopram]
- effect on AMPH induced hyperactivity in sensitized mice [3]: no effect
- effect on AMPH induced hyperactivity in sensitized mice ([3]; listed as Citalopram): inactive
- Average Crossings in % (SEM) ([4]; 0.8 mg/kg): 71.0%
- effect on baseline (basal) locomotor activity [4]: no significant effect

Compound: O=C(CCCN1CCC(O)(c2ccc(Cl)cc2)CC1)c1ccc(F)cc1 [haloperidol]
- effect on the sensitized response to an acute AMPH challenge [2]: reversed the effect of acute AMPH administration

Compound: Nc1nnc(-c2cccc(Cl)c2Cl)c(N)n1 [lamotrigine, 6-(2,3-Dichloro-phenyl)-[1,2,4]-triazine-3,5-diamine]
- effect on the sensitized response to an acute AMPH challenge [2]: dose-dependently abolish; also recorded: reversed the effect of acute AMPH administration
- significance of reduction of AMPH+CDP induced locomotor activity ([5]; lamotrigine about 20 mg/kg, about 30 min s.c. pre-treatment): significant
- significance of reduction of AMPH+CDP induced locomotor activity ([5]; lamotrigine about 20 mg/kg, about 30 min s.c. pre-treatment, listed as Lamotrigine): significantly counteracted
- significance of reduction of AMPH+CDP induced locomotor activity ([5]; lamotrigine about 40 mg/kg, about 30 min s.c. pre-treatment): significant
- significance of reduction of AMPH+CDP induced locomotor activity ([5]; lamotrigine about 40 mg/kg, about 30 min s.c. pre-treatment, listed as Lamotrigine): significantly counteracted
- significance of reduction of AMPH+CDP induced locomotor activity ([5]; lamotrigine about 80 mg/kg, about 30 min s.c. pre-treatment): significant
- significance of reduction of AMPH+CDP induced locomotor activity ([5]; lamotrigine about 80 mg/kg, about 30 min s.c. pre-treatment, listed as Lamotrigine): significantly counteracted
- effect on AMPH+CDP induced locomotor activity (hyperactivity) [5]: significantly reduced; also recorded: reduced the induced locomotor activity
- effect on AMPH+CDP induced locomotor activity (hyperactivity) ([5]; listed as Lamotrigine): significantly and dose-dependently decreased
- Average Crossings in % (SEM) ([4]; 2.5 mg/kg): 114.5%
- Average Crossings in % (SEM) ([4]; 10 mg/kg): 107.9%
- Average Crossings in % (SEM) ([4]; 20 mg/kg): 97.2%
- Average Crossings in % (SEM) ([4]; 40 mg/kg): 82.0%
- Average Crossings in % (SEM) ([4]; 80 mg/kg): 83.0%
- effect on baseline (basal) locomotor activity [4]: not reduced; also recorded: no significant effect

Compound: O=C1NCCN1CCN1CCC(c2cn(-c3ccc(F)cc3)c3ccc(Cl)cc23)CC1 [sertindole]
- affinity for serotonin 5-HT2 (serotonin 5-HT2): high affinity
- effect on AMPH+CDP induced locomotor activity (hyperactivity) [5]: reduced the induced locomotor activity; also recorded: significantly decreased; also recorded: active
- significance of reduction of AMPH+CDP induced locomotor activity ([5]; sertindole about 0.16 mg/kg, about 120 min s.c. pre-treatment): significant
- significance of reduction of AMPH+CDP induced locomotor activity ([5]; sertindole about 1.25 mg/kg, about 120 min s.c. pre-treatment): significant
- affinity for dopamine D2 (dopamine D2): high affinity
- effect on saline activity (saline activity): significantly decreased the saline activity
- doses effective to treat schizophrenic patients (schizophrenic patients): 12 to 24 mg/day
- effect on AMPH induced hyperactivity in sensitized mice [3]: reversed the induced hyperactivity; also recorded: significantly decreased; also recorded: active
- effect on induced hyperactivity ([3]; sertindole 0.16 mg/kg): significantly reversed the induced hyperactivity
- Average Crossings in % (SEM) ([4]; 0.02 mg/kg): 116.7%
- Average Crossings in % (SEM) ([4]; 0.16 mg/kg): 119.9%
- Average Crossings in % (SEM) ([4]; 1.25 mg/kg): 132.4%
- effect on baseline (basal) locomotor activity [4]: no significant effect
- affinity for α1-adrenergic receptors (α1-adrenergic receptors): high affinity

Compound: CCCC(CCC)C(=O)O [valproate]
- effectiveness in the AMPH+CDP induced hyperactivity model [1]: effective
- effect on the sensitized response to an acute AMPH challenge [2]: dose-dependently abolish; also recorded: reversed the effect of acute AMPH administration
